Drawing on a melting point compilation (Tetko et al.; mined from patent text by program, amines drawn as free bases though some values may be those of a salt), this text covers melting point for 88 compounds.

Usually melting point stands for the temperature, or range, at which the solid turns liquid.

The structures appear in SMILES notation.

With `O=C(Nc1cccc2[nH]ccc12)c1cc([N+](=O)[O-])ccc1O`, the melting point is more than 260 °C.
In turn, `CCCn1nc2c(=O)[nH]c3ccccc3c2c1N` came in with a melting point of 266 to 268 °C.
The figure for `Nc1ncc2cc(-c3c(Cl)cccc3Br)c(N)nc2n1` is 264 to 280 °C.
The figure for `O=C(CN1CCN(C(=O)OCc2ccc(C(F)(F)F)cc2)CC1)N1CCC2(CC1)Cn1cc([N+](=O)[O-])nc1O2` is 139 to 141 °C; for `O=C1OC(=O)[C@H](Cc2ccccc2)C[C@H]1Cc1ccccc1` it is 172 to 174 °C.
The figure for `CCCCOc1ccc(-c2cnc(Cl)nc2)cn1` is 117 °C; for `FC(F)(F)c1ccc(Cl)nn1` it is 51 to 52 °C; for `COc1ccc(S(=O)(=O)Nc2cc(NC(=O)c3ccc(Cl)c(Cl)c3)ccc2OC)cc1` it is 225 to 227 °C.
The compound `CCOC(=O)c1nc2scc(CNC(=O)c3ccccc3)c2c(=O)[nH]1` showed a melting point of 204 °C.
Under `CN(C)C(=O)c1cc2ccccc2c(-c2ccccc2)n1` stands 114 to 116 °C.
With `CCC(Br)C(=O)c1ccc(OC)c(OCC(F)(F)F)c1` (stereo not drawn), the melting point fell in the range of 120 to 121 °C.
`N#Cc1cccc2c1NC(=O)C2c1ncnc2c1cnn2C1CCCCC1` (stereo not drawn) yielded a melting point of more than 300 °C.
The figure for `COc1cc(CC(=O)O)ccc1N(C(N)=O)c1ccccc1C(F)(F)F` is 218 to 220 °C; for `O=c1oc(C(F)(F)F)ccc1-c1ccc(Cl)cc1F` it is 107 to 108 °C.
Consider `COc1cc(C(C)=O)cc(OC)c1OC(C)=O`, for which the melting point was 145 °C.
The figure for `CC1(C)CC(N)(C(N)=O)CC(C)(C)N1` is 142 to 144 °C.
Under `CN(CCc1ccc(O)c(O)c1)C(=O)/C=C/c1cccnc1` stands 155 to 158 °C; under `CCCC12CCC3C4CCC(=O)C=C4CCC3C1CCC2(C)O` (stereo not drawn), 134 to 136 °C.
The figure for `CC(C)(c1ccc2ncccc2c1)n1nnc2ccc(-c3ccc(C(N)=O)c(F)c3)nc21` is 127 to 130 °C; for `COC(C#N)=CC1C(C(=O)O)C1(C)C` (stereo not drawn) it is 110 °C.
For `Cc1cc(C)nc(NCC(O)CO)n1` (stereo not drawn), the melting point lay in the range of 124 to 127 °C.
Under `C[C@H](OC(=O)Oc1ccc([N+](=O)[O-])cc1)C(=O)N[C@@H]1C(=O)Nc2c(F)cccc2O[C@@H]1C` stands 140 to 145 °C.
Under `CCOCCOC(=O)C1=C(C)NC(C(OCC)OCC)=C(C(=O)OCC)C1c1cccc([N+](=O)[O-])c1` (stereo not drawn) stands 99 to 100 °C; under `CCCCN1CCC(CNC(=O)c2ccc(N)n3cc(CCC)nc23)CC1`, 172 °C.
Under `O=C(CCc1cnoc1-c1ccccc1)Nc1cnccn1` stands 163 to 164 °C; under `Cc1cc(-c2c3ccccc3c(C)c3sc4ccccc4c23)cc(C)c1OCC(=O)O`, 155 to 181 °C.
Turning to `Cc1cc(C)c(N)c(C(N)=O)c1`, the melting point lay within 162 to 167 °C.
For `COc1cc2c(cc1OC)CC(=O)N(CCCN(C)C[C@H]1Cc3cc(OC)c(OC)cc31)CC2`, the melting point is 98 to 100 °C.
Under `CCOC(=O)c1c[nH]cc1-c1ccccc1[N+](=O)[O-]` stands 159 to 161 °C; under `CCc1ccc2c(c1)C(Cl)Cc1ccc(F)cc1S2` (stereo not drawn), 68 to 70 °C; under `CC1(Cc2ccc(OCc3ccccc3)cc2)OCCO1`, 58 to 62 °C.
The figure for `CC(C)(C)OC(=O)NC1(CCC(=O)O)CC=CO1` (stereo not drawn) is 99 to 101 °C.
Under `COC(=O)c1cccc(-c2cc(-c3ccc(C(F)(F)F)cc3)on2)c1` stands 139 to 140 °C.
As for `CCc1nc(C(F)(F)F)c(CN(C(=O)C2CCCc3c(O)cccc32)c2ccc(C(C)C)nc2)s1` (stereo not drawn), the melting point was determined as 164 °C.
Under `CC(=O)Nc1nc(N(C(C)=O)C(C)=O)c(CCC=O)c(=O)[nH]1` stands 164 to 168 °C; under `CC(C)(C)c1nc2cc(N3CCCC3)c([N+](=O)[O-])cc2s1`, 115 to 117 °C; under `CS(=O)(=O)OCC[C@H](CCCCC(=O)O)OS(C)(=O)=O`, 54 to 55 °C.
With `COC(=O)c1cccc2[nH]cc(C=O)c12`, the melting point amounted to 135 °C.
The figure for `O=C(OC1CCN(c2ccc3[nH]c(=O)ccc3c2)CC1)c1ccccc1` is 212 to 215 °C.
The figure for `CCOC(=O)c1c(-c2ccccc2)nc2c(C(F)(F)F)cccc2c1O` is 114 °C; for `CCCCCCCCCCCCNC(=O)CCNc1cccc(O)c1` it is less than 40 °C.
Under `N#CC1(c2cccc(OCc3ccc4ccc(F)cc4c3)c2)CCOCC1` stands 106 to 107 °C; under `CC=CC(=O)NCCc1ccc(S(=O)(=O)N2CCN(C3CCCCC3)C2=N)cc1`, 157 to 158 °C; under `O=C(NCCCN1CCCCC1)c1ccc(-c2ccc3nnn(Cc4ccc5ncccc5c4)c3n2)cc1F`, 135 to 137 °C.
Consider `CSc1csc2ccc(Br)cc12`, for which the melting point lay within 56 to 57 °C.
Under `C[C@@H]1S[C@@H](C(=O)Nc2ccc(CN3CCCCC3)cc2)Cc2cc3c(cc2C1=O)OCO3` stands 162 to 165 °C.
The figure for `CCCCc1ccc(NC2=NCCS2)cc1` is 73 to 75 °C; for `CN1C(=O)CC[C@]2(C)c3ccc(-c4ccc5ncsc5c4)cc3CC[C@@H]12` it is 183 to 187 °C.
The figure for `O=C(Nc1ccc([C@@H]2[C@H]3COC(=O)[C@H]32)c(F)c1)OCc1ccccc1` is 141 to 142 °C; for `O=C(Nc1ccccc1)NC1C(=O)N(CCO)c2ccccc2N(CC23CC4CC(CC(C4)C2)C3)C1=O` (single isomer, unassigned; (-)) it is 165 to 170 °C.
With `O=C(Oc1ccc(Oc2ccccc2)cc1)N1CCC(OC(=O)N2CCC(OC(=O)N3CCC4(CCCC4)CC3)CC2)CC1`, the melting point lay in the range of 48 to 63 °C.
The figure for `CS(=O)(=O)c1ccc(COc2cccc(C(=O)Nc3ccc(C#N)cc3)c2)cc1` is 209 to 210 °C; for `COC1=CC(O)(SC(=O)N(C)C)C([N+](=O)[O-])C=C1` (stereo not drawn) it is 101 °C; for `CN(C)c1cc2ccc(OCc3ccccc3)cc2s1` it is 78 to 81 °C.
The figure for `CCCCN(Cc1ccc(-c2ccccc2-c2nnn[nH]2)cc1)c1ncncc1C(=O)OC(C)OC(=O)c1ccccc1` (stereo not drawn) is 79 to 88 °C; for `CC1=C(C(=O)OCCCO[N+](=O)[O-])C(c2cccc([N+](=O)[O-])c2)C(C(=O)OCCNC(=O)c2ccccn2)=C(C)N1` (stereo not drawn) it is 146 to 148 °C; for `Cc1noc(NS(=O)(=O)c2ccc(NCCc3ccccc3)cc2-c2ccc(CC(C)C)cc2)c1C` it is 68 to 71 °C.
`CCOC(=O)Cc1c(C)n(Cc2ccc(SC)cc2)c2ccc(OCc3nc4ccccc4s3)cc12`: the melting point fell in the range of 101 to 102 °C.
The figure for `CC(=O)SCC(C(=O)Nc1cccc(O)c1)C(F)(F)F` (stereo not drawn) is 148 to 149 °C.
Consider `N#Cc1cnc2sc(-c3ccccc3C=O)cc2c1Nc1ccc2[nH]ccc2c1`, for which the melting point is 222 to 224 °C.
The figure for `COc1ccc(OCc2ccccc2)c2c1CN(Nc1ccncc1)CC2` is 151 to 152 °C.
For `COc1c2c(cc3c1OCO3)C(OC(C)=O)CN(C)C2` (stereo not drawn), the melting point was in the range of 109 to 110 °C.
The figure for `CS(=O)(=O)N(c1nc(CN2CCN(C(c3ccccc3)c3ccccc3)CC2)cs1)S(C)(=O)=O` is 167 to 168 °C; for `CC(C)(C)c1ccc(/C=N/OCCCOc2ccc(C(=O)O)c(NC(=O)c3ccc4ccccc4c3)c2)cc1` it is 156 to 158 °C; for `COC(=O)C(=O)c1cc(OC)c(OCCOc2ccc3ccccc3c2)c(OC)c1` it is 69 to 71 °C.
Under `CCN(CC)C(=O)C(C)Oc1cc(-c2ccccc2)nc2ccccc12` (stereo not drawn) stands 124 °C; under `S=C1NCCCN1c1ccccc1`, 211 to 212 °C; under `O=C(O)c1ccc([N+](=O)[O-])cc1-c1ccccc1`, 174 to 176 °C.
The figure for `CCOC(=O)CCCOc1cccc2cc(/C(C)=C/C(=O)Nc3ccc(OC)cc3)oc12` is 141 to 142 °C; for `O=c1[nH]c(-c2csc3ccccc23)nc2ccc(N3CCOCC3)cc12` it is more than 300 °C.
Compound `COc1ccc(-n2nc3c4c([nH]cc-3c2=O)CCCC4)cc1` yielded a melting point of 279 to 282 °C.
The compound `CCN1C(=O)C(C)(C)C(=O)N(C)c2cc(CN(CCc3ccc(C)nc3C)Cc3scnc3C)ccc21` registered a melting point of 136 to 137 °C.
The figure for `N#Cc1ccc(NC(=O)CN2CCC(Cc3ccc(F)cc3)CC2)cc1` is 113 to 116 °C; for `O=C1[C@H]2C[C@H](F)CN2C(=O)N1c1cc(NS(=O)(=O)CCl)c(Cl)cc1F` it is 147 to 151 °C.
The figure for `COc1c(S(N)(=O)=O)cccc1S(=O)(=O)NC(=O)Nc1nc(C)cc(C)n1` is 218 °C.
Under `COC(=O)c1ncc(C)cc1C(=O)O` stands 200 °C; under `CCC(CC)c1ccc(Cl)c2nc(Nc3c(C)cc(Br)cc3OC)n(C)c12`, 218 to 220 °C.
For `CCNC1=NS(=O)(=O)c2cc(F)c(F)cc2N1`, the melting point is 246 to 252 °C.
The figure for `CCCOc1ccc2c(c1)[C@@H](c1ccc(OC)cc1OCCO)[C@@H](C(=O)OC)[C@H]2c1ccc2c(c1)OCO2` (racemic) is 165 to 168 °C; for `COCC1=C(C(=O)OC)C(c2ccccc2Cl)c2c[nH]nc2N1` (stereo not drawn) it is 160 °C; for `CCc1ccc(Nc2nc3cc(NC(=O)c4ccc(Cl)c(Cl)c4)ccc3o2)cc1` it is more than 250 °C.
Under `BrCc1ccccc1-c1cc(-c2ccccc2)on1` stands 68 to 72 °C; under `CN(Cc1ccc([N+](=O)[O-])cc1)C1CCN(c2ccc([N+](=O)[O-])cc2)CC1`, 119 to 120 °C; under `CC(C)(C)OC(=O)NCCSCC1(C)NC(=O)NC1=O` (stereo not drawn), 134 to 136 °C.
Under `CN1CCN(c2n[nH]c3ccccc23)CC1` stands 111 to 113 °C.
`CCOC(=O)c1c(C(F)F)nc(C(F)(F)F)c(C(=O)OCC)c1Cl` displayed a melting point of 35 to 40 °C.
Under `Fc1ccc(Nc2nc(Cl)nc(NN=Cc3ccc(OC(F)(F)F)cc3)n2)cc1C(F)(F)F` stands 109 to 111 °C.
`COc1ccc(-n2c(N)cc(=O)nc2SC)cc1` returned a melting point of 182 to 186 °C.
